Source: PubChem BioAssay AID179 (DTP/NCI, 2004)
Active and inactive are the calls of the source.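 How the source made its calls: active means compounds giving half or more protection of infected cells from virus-caused growth loss, again on retest; inactive means the rest.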 Where a SMILES comes first, the peptide text is derived from it. Bridges are numbered along the chain shown (N, C = ends). [ ]: non-standard residue; d: D form. The star is where a group is joined. ξ: configuration not given here. ξF = NC(Cc1ccccc1)C(=O)O; Cbz = O=C(OCc1ccccc1)*; Aib = CC(C)(N)C(=O)O

Test system: CEM cells HIV-1 protection, formazan growth assay
Assay: NCI AIDS Antiviral Assay
Settings: for IC50: measured here: growth of uninfected CEM cells
Outline: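 Soluble formazan readout of cell growth; CEM cells ± HIV-1; 5 drug concs. ≥50% protection → retest; ≥50% again = moderately active; reproducible 100% = confirmed active.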

## O=c1oc2cc(O)ccc2c(O)c1C(c1ccccc1)c1c(O)c2ccc(O)cc2oc1=O
  EC50: > 200 µM
  IC50: 178 µM

## N#CC(=C=[N-])[n+]1ccc(Cl)cc1
  outcome: inactive

## Cc1csc([C@H]2CCC3[C@@H]4CC=C5C[C@@H](OC(=O)CCC(=O)O)CC[C@]5(C)C4CC[C@@]32C)n1 (stereo partly drawn)
  EC50: > 52.5 µM
  IC50: 33.1 µM

## C=C1C[C@@H]2O[C@H]3[C@H]4[C@@H](C[C@@H](C)[C@@H](OC(C)=O)[C@H]42)[C@@H](C)CO[C@@]3(C)[C@H](OC(=O)CCCCCCC)CC1=O
  EC50: > 200 µM
  IC50: 10 µM

## CCn1c2c(c3ccccc31)CCSC2(C)CCN(C)C (stereo not drawn)
  outcome: inactive

## CC(=O)Nc1ccccc1/C=C\c1ccccn1
  EC50: > 1050 µM
  IC50: > 1050 µM

## Nc1cc(CO)cc(Nc2c3ccccc3nc3ccccc23)c1
  EC50: > 2 µM
  IC50: 0.347 µM

## CCOP(=O)(OCC)C(N)C(C)CC (stereo not drawn)
  EC50: > 479 µM
  IC50: > 479 µM

## Cc1ccc(C[N+](C)(C)c2ccccc2)o1
  EC50: > 724 µM
  IC50: 102 µM

## O=C(CCc1n[nH]c(=S)o1)Nc1cc(Cl)c(Cl)cc1Cl
  outcome: inactive

## CC(=O)NC(CCCNC(=O)N(CCCl)N=O)C(=O)NCc1ccccc1 (stereo not drawn)
  EC50: > 631 µM
  IC50: 69.2 µM

## N/C(=N\C(=S)N1CCCCC1)N1CCCCC1
  outcome: inactive

## O=C(/C=C/c1ccc(Cl)c(Cl)c1)c1ccc(F)cc1
  EC50: > 1.86 µM
  IC50: > 1.86 µM

## c1cc2nnc1SCCSCCCSCCS2
  EC50: > 200 µM
  IC50: 182 µM

## CCCc1cc(=O)oc2c3c(c4c(c12)OC(C)(C)[C@H](O)[C@@H]4O)O[C@@H](C)[C@H](C)[C@@H]3O
  EC50: > 200 µM
  IC50: 87.1 µM

## CNC(=O)C1CCCCNC(=O)CCC(NC(=O)OCc2ccccc2)C(=O)N1 (stereo not drawn) (Cbz-Glu-Lys-NHMe; lactam 1-2; configuration not given here)
  EC50: > 200 µM
  IC50: > 200 µM

## O=C1C(S(=O)(=O)c2ccccc2)=C(CS(=O)(=O)c2ccccc2)[C@@H](OCc2ccccc2)[C@@H]1OCc1ccccc1
  EC50: > 20 µM
  IC50: 9.55 µM

## O=C1/C(=C(/Br)I)c2ccccc2-c2ccccc21
  EC50: > 200 µM
  IC50: 8.32 µM

## CCC(O)(Cc1ccccc1)C(C(=O)O)c1ccccc1 (stereo not drawn)
  EC50: > 457 µM
  IC50: 339 µM

## CCO/C=N/C1=C(C#N)SC2=N/C(=C\c3ccccc3)C(=O)N21
  EC50: > 200 µM
  IC50: 77.6 µM

## c1ccc2c(C3NCCc4[nH]cnc43)cccc2c1 (stereo not drawn)
  EC50: > 525 µM
  IC50: > 525 µM

## Cc1c2ccccc2nc(CSc2n[nH]c(=S)s2)[n+]1[O-]
  EC50: > 200 µM
  IC50: > 200 µM

## CC(C)(C)n1c(=O)n2n(c1=O)C1c3cccc4cccc(c34)C2C2c3cccc4cccc(c34)C1n1c(=O)n(C(C)(C)C)c(=O)n12
  EC50: > 200 µM
  IC50: 50.1 µM

## NC(Cc1ccccc1CP(=O)(O)O)C(=O)O (stereo not drawn)
  EC50: > 200 µM
  IC50: > 200 µM

## Oc1cc(-n2cccn2)c(O)cc1-n1cccn1
  EC50: > 77.6 µM
  IC50: 14.1 µM

## COC(=O)c1ccccc1N=Cc1ccc(N(CCC#N)S(=O)(=O)c2ccccc2)cc1
  EC50: > 562 µM
  IC50: 479 µM

## CC1(c2cccc([N+](=O)[O-])c2)C(C#N)C(=O)NC(=O)C1C#N (stereo not drawn)
  EC50: > 417 µM
  IC50: 245 µM

## CN(C)c1cccc2c(S(=O)(=O)NCCCCCCCCCCCCNS(=O)(=O)c3cccc4c(N(C)C)cccc34)cccc12
  EC50: > 200 µM

## O=[N+]([O-])C(=C/C1CCCCC1)/C(=C\C1CCCCC1)[N+](=O)[O-]
  EC50: > 200 µM
  IC50: 4.57 µM

## CCCCc1c2c(nc3c1CCC/C3=C\c1ccccc1)C(=O)CCC2
  EC50: > 5.75 µM
  IC50: > 5.75 µM

## C[C@H](NC1=CC(=O)C(N[C@@H](C)[C@H](O)c2ccccc2)=CC1=O)[C@H](O)c1ccccc1
  EC50: > 200 µM
  IC50: 141 µM

## N#Cc1ccccc1NC(=O)C(=O)c1c(O)c2ccccc2oc1=O
  EC50: > 741 µM
  IC50: > 741 µM

## COc1ccc2nc(N/N=C/c3ccc(C)s3)cc(C)c2c1
  EC50: > 200 µM
  IC50: 12.9 µM

## Cc1cn(C2OC(CO)C(CN=[N+]=[N-])C2O)c(=O)[nH]c1=O (stereo not drawn)
  EC50: > 200 µM
  IC50: > 200 µM

## CN=c1c2c(c3[nH]c4ccccc4c4cnc1c34)NCCC2=O
  EC50: > 200 µM
  IC50: 1.41 µM

## O=C(O)c1ccc(NC(NC(=O)C(C(F)(F)F)C(F)(F)F)(C(F)(F)F)C(F)(F)F)cc1
  EC50: > 200 µM
  IC50: > 200 µM

## CN(C)c1ccc(/C=C2\CCOC2=O)cc1
  EC50: > 17.4 µM
  IC50: > 17.4 µM

## O=C1CC2(CCCC2)C(=O)N1c1cccc([N+](=O)[O-])c1
  EC50: > 347 µM
  IC50: 275 µM

## N#CN=C(N)c1sc2nc3c(c(-c4ccc(Br)cc4)c2c1N)CCCC3
  EC50: > 200 µM
  IC50: 7.08 µM

## O=C(c1ccc(Cl)cc1)N(C(=O)N1CCCCC1)c1ccccc1
  EC50: > 200 µM
  IC50: 81.3 µM

## O=C1C=C(c2ccccc2)OC1(Cl)c1ccccc1 (stereo not drawn)
  EC50: > 200 µM
  IC50: 38 µM

## CC(=O)c1ccc(NC(=S)NN)cc1
  EC50: > 174 µM
  outcome: inactive
  IC50: 148 µM

## COc1c(OC(C)C)cc2cc(O)c(C(=O)NC3Cc4ccc(c(Cl)n4)O[C@@H]4C=C5C#C/C(=C\C#CC6OC56C4OC4CC(C)(O)C(O)C(C)O4)C(OC4CC(O)C(N(C)C)C(C)O4)COC3=O)cc2c1OC (stereo partly drawn)
  outcome: inactive

## CC1=CO[C@@H]2O[C@@]3(C)CC[C@H]4[C@H](C)CC[C@@H]1[C@@]24O3
  EC50: > 200 µM
  IC50: > 200 µM

## CC1=C(C)SC(=C2Sc3nc(O)[nH]c(=O)c3S2)S1
  EC50: > 200 µM
  IC50: 145 µM

## CCOC(=O)C1=NC(c2ccccc2)(c2ccccc2)OC1=C(Cl)Cl
  EC50: > 1 µM
  IC50: > 1 µM

## CCCCc1ccc(-n2c3nc(=O)n(C)c(=O)c-3nc3ccccc32)cc1
  outcome: inactive

## O=S(=O)(c1ccc(Br)cc1)n1c2ccc(Br)cc2c2nc3ccccc3nc21
  EC50: > 100 µM
  IC50: > 100 µM

## N#CC(NCCc1ccccc1)c1ccccc1 (stereo not drawn)
  outcome: inactive

## O=C1/C(=C/c2ccccc2)CCCC1CN1CCCCC1 (stereo not drawn)
  EC50: > 200 µM
  IC50: 0.676 µM

## [N-]=[N+]=NC1(c2ccccc2)C(=O)c2cccc3c4ccccc4n(c23)C1=O (stereo not drawn)
  EC50: > 200 µM
  IC50: > 200 µM

## CN1C/C(=C/c2ccc(N(C)C)cc2)C(=O)/C(=C/c2ccc(N(C)C)cc2)C1
  EC50: > 200 µM
  IC50: > 200 µM

## C/C(CN1C(=O)c2ccccc2C1=O)=N\NS(=O)(=O)c1ccc(F)cc1
  EC50: > 479 µM
  IC50: > 479 µM

## COC1Nc2nc3ccccc3nc2NC1OC (stereo not drawn)
  EC50: > 363 µM
  IC50: 66.1 µM

## CC(=O)O[C@H]1[C@H](OC(=O)CC(C)(O)CC(=O)O)C[C@]2(C)C3=C(CCC2C1(C)C)[C@]1(C)CC[C@H]([C@H]2CC[C@H](C(C)(C)O)OC2O)[C@@]1(C)[C@@H](O)C3 (stereo partly drawn)
  EC50: > 100 µM
  IC50: 49 µM

## N#CCCN(CCN(C(=O)Nc1ccccc1)c1ccccc1)C(=O)Nc1ccccc1
  EC50: > 200 µM
  IC50: 55 µM

## CC(=O)c1ccc(N2C(=O)C3c4[nH]c5ccccc5c4C4CCC(C(C)(C)C)CC4C3C2=O)cc1 (stereo not drawn)
  EC50: > 11.2 µM
  IC50: > 11.2 µM

## CC1(c2ccc(Cl)cc2)c2ccccc2C(=O)N1CCCN1C(=O)c2ccccc2C1=O (stereo not drawn)
  EC50: > 200 µM
  IC50: 195 µM

## CC(C)(C)OC(=O)NC12C3C4C1C1C2C3C41NC(=O)OC(C)(C)C (stereo not drawn)
  EC50: > 200 µM
  IC50: 53.7 µM

## O=C1/C(=C/c2ccc(Cl)c(Cl)c2)CCC/C1=C\c1ccc(Cl)c(Cl)c1
  EC50: > 50.1 µM
  IC50: 2.95 µM

## CCN(CC)C(=S)N/N=C/c1cc([N+](=O)[O-])ccc1O
  EC50: > 200 µM
  IC50: 3.63 µM

## COc1cccc(C2=NC(C(C)(C)C)CO2)c1-c1ccccc1C1OCCO1 (stereo not drawn)
  EC50: > 339 µM
  IC50: > 339 µM

## Cn1c(=O)nc2n(-c3ccc(Cl)c(C(F)(F)F)c3)c3ccccc3nc-2c1=O
  outcome: inactive

## NNC(=O)C(=O)N/N=C(\CCC(=O)Nc1ccc(Cl)cc1)Cc1nc2ccccc2s1
  EC50: > 77.6 µM
  IC50: 14.5 µM

## CC(C)C[C@H]1[C@@H](OCc2ccccc2)COS(=O)(=O)N1[C@H](C)c1ccccc1
  EC50: > 200 µM
  IC50: 11.2 µM

## CCOC(=O)C(=O)Cc1cc(=O)n(C)c2ccccc12
  EC50: > 200 µM
  IC50: 170 µM

## CN(C)CC1CCC/C(=C\c2ccccc2)C1=O (stereo not drawn)
  EC50: > 200 µM
  IC50: 0.708 µM

## O=C1OC(=O)C([Se]c2ccccc2)=C1[Se]c1ccccc1
  outcome: inactive

## C=CC1CN2CCC1CC2C(O)c1ccnc2ccc(OC)cc12 (stereo not drawn)
  EC50: > 200 µM
  IC50: > 100 µM

## Oc1c(O)c(Cc2ccccc2)c(Cc2ccccc2)c(Cc2ccccc2)c1Cc1ccccc1
  EC50: > 200 µM
  IC50: 32.4 µM

## CCOC(=O)CNC(=O)C(Cc1ccccc1)NC(=O)C(C)(C)NC(=O)OCc1ccccc1 (stereo not drawn) (Cbz-[Aib]-[ξF]-Gly-OEt)
  EC50: > 200 µM
  IC50: 95.5 µM

## Cc1ccc(S(=O)(=O)N/N=C(\c2nc3ccc(Cl)cc3[nH]c2=O)C(O)c2ccco2)cc1 (stereo not drawn)
  EC50: > 275 µM
  IC50: 17 µM

## O=C1c2cccnc2S(=O)N1Cc1ccccc1 (stereo not drawn)
  EC50: 105 µM
  IC50: > 200 µM

## CC(C)CCCC(C)[C@H]1CC[C@H]2[C@@H]3CC[C@H]4C[C@@H](CCC=C(c5cc(Cl)c(OCc6ccc(B7OC(C)(C)C(C)(C)O7)cc6)c(C(=O)OCc6ccc(B7OC(C)(C)C(C)(C)O7)cc6)c5)c5cc(Cl)c(OCc6ccc(B7OC(C)(C)C(C)(C)O7)cc6)c(C(=O)OCc6ccc(B7OC(C)(C)C(C)(C)O7)cc6)c5)CC[C@]4(C)[C@H]3CC[C@]12C (stereo partly drawn)
  EC50: > 200 µM
  IC50: > 200 µM

## COC(=O)c1nc2c(C)c(O)c(O)c([C@H](C)CCC=C(C)C)c2o1
  EC50: > 200 µM
  IC50: 13.5 µM

## C=CC(C1=CC(=O)C(OC)=CC1=O)c1ccccc1 (stereo not drawn)
  outcome: inactive

## COc1ccc(NS(=O)CCc2ccccc2)cc1 (stereo not drawn)
  EC50: > 200 µM
  IC50: 22.9 µM

## Cc1ccc(NC=O)c(-c2c(N)[nH]c(=S)[nH]c2=O)c1
  EC50: > 200 µM
  IC50: 148 µM

## Cc1ccc(N=NN(C)C(C)C(O)Cc2ccccc2)cc1 (stereo not drawn)
  EC50: > 200 µM
  IC50: 77.6 µM

## C=CCC(C=C=CCN(C)C)CO (stereo not drawn)
  EC50: > 1200 µM
  IC50: 631 µM

## Cc1nn2c(=O)n(-c3cccc(-n4nnc5c(-c6ccccc6)c(C)nn5c4=O)c3C)nnc2c1-c1ccccc1
  outcome: inactive

## CCOC(=O)c1nc2ccccc2n(CC)c1=O
  EC50: > 200 µM
  IC50: 79.4 µM
